# Assay results published in ChEMBL document CHEMBL5576044, “Inhibition of kynurenine production by N,O-substituted hydroxylamine derivatives” (Bioorg Med Chem Lett, 2024).
# The source made the active and inactive calls. The calls are words filed in the database; no cut-off is given here.
# Columns and labels:
# [1] = Inhibition of kynurenine production in human SK-OV-3 cells; format: functional, cell-based
# [2] = target: Indoleamine 2,3-dioxygenase 1 (Homo sapiens) (UniProt P14902); assay: Inhibition of recombinant human IDO1 at 10 ug/ml relative to control; settings: dose 10.0 µg/ml
# [3] = Cytotoxicity against human SK-OV-3 cells; format: toxicity, cell-based
# [4] = target: Indoleamine 2,3-dioxygenase 1 (Homo sapiens) (UniProt P14902); assay: Inhibition of IDO1 in human SK-OV-3 cells; format: cell-based
# [5] = Drug concentration in C57BL/6 mouse serum at 100 mg per mouse administered via oral dosing after 2 hrs by LC-MS analysis; format: ADME; settings: read-out: Drug uptake
# Mus musculus [6] = assay: In vivo inhibition of kynurenine production in iv dosed mouse serum by LC/MS analysis; format: functional, organism-based
# [7] = Stability in mouse serum after 1 hr; format: ADME
# [8] = Drug metabolism in mouse serum assessed as N-Cbz-L-alanine formation after 1 hr; format: ADME, cell-free
# [9] = Drug degradation in human SK-OV-3 cell culture supernatant; format: ADME, cell-based
# [10] = Drug metabolism in human SK-OV-3 cell culture supernatant assessed as O-benzylhydroxylamine Hydrochloride formation after 24 hrs; format: ADME, cell-based; settings: sk-ov-3, 24 h
# [11] = target: Signal transducer and activator of transcription 3 (Homo sapiens) (UniProt P40763); assay: Inhibition of STAT3 phosphorylation in IFN-gamma activated human A549 cells at 5 to 40 microg/ml by Western blotting analysis; format: cell-based; settings: dose 5-40 µg/ml
# A549 = assay: Reduction in IFN-gamma activated IDO1 expression level in human A549 cells at 1.25 to 40 microg/ml by Western blotting analysis; format: functional, cell-based; settings: dose 1.25-40 µg/ml
# [12] = Drug metabolism in human SK-OV-3 cell culture supernatant assessed as O-4-nitrobenzyl hydroxylamine Hydrochloride formation after 24 hrs; format: ADME, cell-based; settings: sk-ov-3, 24 h
# Mus musculus [13] = assay: In vivo inhibition of kynurenine production in C57BL/6 mouse serum at 100 mg per mouse administered via oral dosing and measured after 2 hrs by LC-MS analysis; format: functional, organism-based
# Mus musculus [14] = assay: In vivo inhibition of kynurenine production in C57BL/6 mouse serum at 200 mg per mouse administered via ip and measured after 2 hrs by LC-MS analysis; format: functional, organism-based
# Mus musculus [15] = assay: In vivo inhibition of kynurenine production in C57BL/6 mouse serum at 200 mg per mouse administered via oral dosing and measured after 2 hrs by LC-MS analysis; format: functional, organism-based
# [16] = Drug concentration in C57BL/6 mouse serum at 200 mg per mouse administered via ip after 2 hrs by LC-MS analysis; format: ADME, organism-based; settings: read-out: Drug uptake
# [17] = Drug concentration in C57BL/6 mouse serum at 200 mg per mouse administered via oral dosing after 2 hrs by LC-MS analysis; format: ADME; settings: read-out: Drug uptake
# [18] = Drug metabolism in C57BL/6 mouse serum at 200 mg per mouse administered via IP measured after 2 hrs by LC-MS analysis; format: ADME
# [19] = Drug metabolism in C57BL/6 mouse serum at 200 mg per mouse administered via oral dosing measured after 2 hrs by LC-MS analysis; format: ADME
# Chain of Indoleamine 2,3-dioxygenase 1 (Homo sapiens) (P14902 whole entry, looked up): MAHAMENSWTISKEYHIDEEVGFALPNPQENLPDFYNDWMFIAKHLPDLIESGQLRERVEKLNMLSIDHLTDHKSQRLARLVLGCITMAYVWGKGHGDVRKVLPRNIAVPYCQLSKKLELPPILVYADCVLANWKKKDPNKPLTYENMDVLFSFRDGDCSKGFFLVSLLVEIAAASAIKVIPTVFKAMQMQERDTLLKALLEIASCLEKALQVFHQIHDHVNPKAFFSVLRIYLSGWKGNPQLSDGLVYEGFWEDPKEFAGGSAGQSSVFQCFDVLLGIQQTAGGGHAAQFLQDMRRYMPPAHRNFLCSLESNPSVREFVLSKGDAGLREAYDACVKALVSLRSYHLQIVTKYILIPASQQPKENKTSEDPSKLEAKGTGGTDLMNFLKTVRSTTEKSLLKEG
# Chain of Signal transducer and activator of transcription 3 (Homo sapiens) (P40763 whole entry): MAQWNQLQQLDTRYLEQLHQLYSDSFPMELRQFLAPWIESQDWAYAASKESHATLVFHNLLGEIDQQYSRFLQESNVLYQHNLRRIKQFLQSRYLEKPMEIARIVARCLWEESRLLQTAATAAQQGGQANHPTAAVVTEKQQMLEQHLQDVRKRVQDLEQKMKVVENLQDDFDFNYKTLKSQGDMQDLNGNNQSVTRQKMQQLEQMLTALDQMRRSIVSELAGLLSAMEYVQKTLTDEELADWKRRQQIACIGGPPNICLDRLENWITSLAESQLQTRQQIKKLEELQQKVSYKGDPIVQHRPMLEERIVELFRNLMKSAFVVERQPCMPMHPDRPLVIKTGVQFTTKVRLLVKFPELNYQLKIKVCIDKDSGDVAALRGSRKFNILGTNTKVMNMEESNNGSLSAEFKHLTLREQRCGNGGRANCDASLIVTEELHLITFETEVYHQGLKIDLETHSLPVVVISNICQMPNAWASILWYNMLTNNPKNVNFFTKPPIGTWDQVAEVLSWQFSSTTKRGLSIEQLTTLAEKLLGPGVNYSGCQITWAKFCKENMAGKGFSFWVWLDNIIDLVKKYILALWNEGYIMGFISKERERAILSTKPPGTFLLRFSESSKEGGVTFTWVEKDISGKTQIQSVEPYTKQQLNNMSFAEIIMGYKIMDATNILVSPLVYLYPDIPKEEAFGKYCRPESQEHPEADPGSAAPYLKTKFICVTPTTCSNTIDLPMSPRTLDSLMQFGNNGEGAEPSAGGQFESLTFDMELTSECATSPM
SMILES,IC50 [1],inhibition [2],inhibition [4],IC50 [3],further results
O=C(NOCc1ccc([N+](=O)[O-])cc1)[C@H](O)c1ccccc1,24 µM,9%,inactive,> 100 µM,–
NS(=O)(=O)NCCNc1nonc1C(=NO)Nc1ccc(F)c(Br)c1 [EPACADOSTAT],–,–,–,–,concentration at 2 h [5]: 1400 nM
CC12CC3CC(C)(C1)CC(C(=O)NOCc1ccccc1)(C3)C2,> 100 µM,7.9%,–,> 100 µM,–
CONC(=O)[C@H](CO)NC(=O)OCc1ccccc1,> 100 µM,-8.3%,–,> 100 µM,–
O=C(NOCc1ccc([N+](=O)[O-])cc1)C12CC3CC(CC(O)(C3)C1)C2,> 100 µM,-3.3%,–,> 100 µM,–
O=[N+]([O-])c1ccc(CONS(=O)(=O)Cc2ccccc2)cc1,> 100 µM,0.19%,–,> 100 µM,–
O=C(N[C@@H](CO)C(=O)O)OCc1ccccc1,> 100 µM,-5.5%,–,> 100 µM,–
NS(=O)(=O)NCCNc1nonc1/C(=N/O)Nc1ccc(F)c(Br)c1,–,–,–,–,inhibition (Mus musculus [13]): Active
O=C(NOCc1ccc([N+](=O)[O-])cc1)C12CC3CC(CC(C3)C1)C2,17 µM,12%,inactive,> 100 µM,inhibition (Mus musculus [14]): inactive; inhibition (Mus musculus [15]): inactive; concentration at 2 h [16]: 18 nM; concentration at 2 h [17]: 3 nM; Drug metabolism [18]: Metabolite_Detected; Drug metabolism [19]: Metabolite_Detected; Stability [9]: Stable
O=C(N[C@@H](CO)C(=O)NCCc1ccccc1)OCc1ccccc1,> 100 µM,-5.1%,–,> 100 µM,–
O=C(N[C@@H](CO)C(=O)Nc1ccccc1O)OCc1ccccc1,> 100 µM,2.9%,–,> 100 µM,–

# Continued, in another order:
IC50 [1],inhibition [2],inhibition [4],SMILES,IC50 [3],further results
10 µM,100%,Active,NOCc1ccccc1,> 100 µM,–
12 µM,4.9%,–,O=C(N[C@@H](Cc1c[nH]c2ccccc12)C(=O)NOCc1ccccc1)OCc1ccccc1,> 100 µM,–
5.2 µM,-9.4%,–,C[C@H](NC(=O)OCc1ccccc1)C(=O)NOCc1ccccc1,> 100 µM,inhibition (Mus musculus [6]): inactive; Stability [7]: Unstable; Drug metabolism [8]: Metabolite_Detected
8 µM,100%,Active,Cl.NOCc1ccc([N+](=O)[O-])cc1,> 100 µM,Stability [9]: Unstable
5.1 µM,5.6%,–,O=C(N[C@H](CO)C(=O)NOCc1ccccc1)OCc1ccccc1,> 100 µM,Drug metabolism [10]: Metabolite_Detected
4.6 µM,10%,Active,O=C(N[C@@H](CO)C(=O)NOCc1ccccc1)OCc1ccccc1,> 100 µM,inhibition [11]: inactive; Activity (A549): inactive
5.5 µM,-9.2%,Active,O=C(N[C@@H](CO)C(=O)NOCc1ccc([N+](=O)[O-])cc1)OCc1ccccc1,> 100 µM,Drug metabolism [12]: Metabolite_Detected
5.5 µM,0%,–,N[C@@H](CO)C(=O)NOCc1ccccc1,> 100 µM,–
